Structures are written as SMILES.

The conditions of data set [1]: in vivo; cited from earlier work.
Data set [2] has as its system retinal vascular permeability and retinal blood flow. The settings on record: diabetic rats; cited from earlier work.
A further data set concerns the target Human plasma kallikrein (Homo sapiens (Human), UniProt P03952). Description: Determination of the IC50 for plasma kallikrein (fluorogenic substrate H-DPro-Phe-Arg-AFC). In kind it is biochemical. The settings on record: 37° C., read-out: IC50 (human PKal). The protocol: Determination of the IC50 for Plasma Kallikrein
Plasma kallikrein inhibitory activity in vitro was determined using standard published methods (see e.g. Johansen et al., Int. J. Tiss. Reac. 1986, 8, 185; Shori et al., Biochem. Pharmacol., 1992, 43, 1209; Stürzebecher et al., Biol. Chem. Hoppe-Seyler, 1992, 373, 1025). Human plasma kallikrein (Protogen) was incubated at 37° C. with the fluorogenic substrate H-DPro-Phe-Arg-AFC and various concentrations of the test compound. Residual enzyme activity (initial rate of reaction) was determined by measuring the change in optical absorbance at 410 nm and the IC50 value for the test compound was determined.

In the next data set the target is Human KLK1 (Homo sapiens (Human), UniProt P06870). Description: Determination of the IC50 for KLK1 (fluorogenic substrate H-DVal-Leu-Arg-AFC). In kind it is biochemical. The note with it: 37° C. The protocol:
Determination of the IC50 for KLK1
KLK1 inhibitory activity in vitro was determined using standard published methods (see e.g. Johansen et al., Int. J. Tiss. Reac. 1986, 8, 185; Shori et al., Biochem. Pharmacol., 1992, 43, 1209; Stürzebecher et al., Biol. Chem. Hoppe-Seyler, 1992, 373, 1025). Human KLK1 (Callbiochem) was incubated at 37° C. with the fluorogenic substrate H-DVal-Leu-Arg-AFC and various concentrations of the test compound. Residual enzyme activity (initial rate of reaction) was determined by measuring the change in optical absorbance at 410 nm and the IC50 value for the test compound was determined.

Human plasma kallikrein, sequence (P03952 391-638): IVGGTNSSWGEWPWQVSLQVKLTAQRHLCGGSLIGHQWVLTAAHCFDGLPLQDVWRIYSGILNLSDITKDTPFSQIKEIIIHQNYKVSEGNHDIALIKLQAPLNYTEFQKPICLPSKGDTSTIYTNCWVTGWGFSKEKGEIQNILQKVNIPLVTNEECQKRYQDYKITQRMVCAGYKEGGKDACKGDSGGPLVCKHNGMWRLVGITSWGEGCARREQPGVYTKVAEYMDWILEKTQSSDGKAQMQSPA
Human plasma kallikrein, sequence (P03952 20-390 partner): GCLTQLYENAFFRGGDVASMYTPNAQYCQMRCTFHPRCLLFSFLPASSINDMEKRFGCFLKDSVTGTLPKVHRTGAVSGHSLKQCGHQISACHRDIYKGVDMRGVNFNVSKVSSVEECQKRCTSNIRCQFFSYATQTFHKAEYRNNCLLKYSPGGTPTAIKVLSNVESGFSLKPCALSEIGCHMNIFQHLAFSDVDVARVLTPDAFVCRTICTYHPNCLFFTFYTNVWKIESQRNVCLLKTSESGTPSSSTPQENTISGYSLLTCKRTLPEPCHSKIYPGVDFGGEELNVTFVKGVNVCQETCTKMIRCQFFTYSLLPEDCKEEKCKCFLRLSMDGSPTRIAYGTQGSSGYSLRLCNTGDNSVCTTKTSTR
Human KLK1, sequence (P06870 25-262): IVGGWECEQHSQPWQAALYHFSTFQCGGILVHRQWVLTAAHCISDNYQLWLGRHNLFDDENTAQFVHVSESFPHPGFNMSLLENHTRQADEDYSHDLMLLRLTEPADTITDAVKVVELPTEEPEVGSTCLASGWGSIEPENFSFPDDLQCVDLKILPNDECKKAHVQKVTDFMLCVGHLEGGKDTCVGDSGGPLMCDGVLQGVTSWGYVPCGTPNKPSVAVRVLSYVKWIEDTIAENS

For `N=C(N)c1ccc(CNC(=O)c2cnn(Cc3ccccc3)c2)cc1` [ASP-440], the oral availability result in data set [1] was “poor oral availability”. In data set [2], the “effect on retinal vascular permeability and retinal blood flow abnormalities” value was “ameliorated both retinal vascular permeability and retinal blood flow abnormalities”.
Consider `O=c1ccccn1Cc1ccc(Cn2ccc3c(NCc4cnc5[nH]ccc5c4)nccc32)cc1` [Example 3, 1-(4-{4-[(1H-Pyrrolo[2,3-b]pyridin-5-ylmethyl)-amino]-pyrrolo[3,2-c]pyridin-1-ylmethyl}-benzyl)-1H-pyridin-2-one], for which the IC50 – broadly, the midpoint of a concentration-inhibition curve – on Human plasma kallikrein came to 5.46 µM; against Human KLK1, 5.69 µM.
The matching figures for `c1ccc(-c2nc(Cn3ccc4c(NCc5cnc6[nH]ccc6c5)nccc43)cs2)cc1` [Example 4, [1-(2-Phenyl-thiazol-4-ylmethyl)-1H-pyrrolo[3,2-c]pyridin-4-yl]-(1H-pyrrolo[2,3-b]pyridin-5-ylmethyl)-amine]: 5.32 µM and 10.3 µM.
For `NCc1ccc(CNc2nccc3c2ccn3CCCCc2ccccc2)cc1` [Example 5, (4-Aminomethyl-benzyl)-[1-(4-phenyl-butyl)-1H-pyrrolo[3,2-c]pyridin-4-yl]-amine], in that order: 29 µM and 38.6 µM.
For `Cc1cc(CN)ccc1CNc1nccc2c1ccn2Cc1csc(-c2ccccc2)n1` [Example 6, (4-Aminomethyl-2-methyl-benzyl)-[1-(2-phenyl-thiazol-4-ylmethyl)-1H-pyrrolo[3,2-c]pyridin-4-yl]-amine], in that order: 8.59 µM and 8.14 µM.
For `NCc1ccc(CNc2nccc3c2ccn3Cc2ccc(Cn3ccccc3=O)cc2)cc1` [Example 7, 1-{4-[4-(4-Aminomethyl-benzylamino)-pyrrolo[3,2-c]pyridin-1-ylmethyl]-benzyl}-1H-pyridin-2-one], the results for the IC50 at Human plasma kallikrein and against Human KLK1 were 5.37 µM and 29.9 µM, respectively.
For `Cc1cc(CN)ccc1CNc1nccc2c1ccn2Cc1ccc(Cn2ccccc2=O)cc1` [Example 8, 1-{4-[4-(4-Aminomethyl-2-methyl-benzylamino)-pyrrolo[3,2-c]pyridin-1-ylmethyl]-benzyl}-1H-pyridin-2-one], in that order: 6.3 µM and 5.3 µM.
Turning to `NCc1ccc(CNc2nccc3c2ccn3Cc2csc(-c3ccccc3)n2)cc1` [Example 9, (4-Aminomethyl-benzyl)-[1-(2-phenyl-thiazol-4-ylmethyl)-1H-pyrrolo[3,2-c]pyridin-4-yl]-amine], the values for the half-maximal inhibitory concentration (IC50) at Human plasma kallikrein and against Human KLK1 were 8.1 µM and 8.26 µM, respectively.
For `Cc1cnn(Cc2ccc(CN3CCOc4c(NCc5ccc6c(N)nccc6c5)ncnc43)cc2)c1` [Example 10, (1-Amino-isoquinolin-6-ylmethyl)-{8-[4-(4-methyl-pyrazol-1-ylmethyl)-benzyl]-7,8-dihydro-6H-pyrimido[5,4-b][1,4]oxazin-4-yl}-amine], in that order: 20.5 µM and 5.04 µM.

The values above are taken from US9738641B2, “Bicyclic inhibitors” (Kalvista Pharmaceuticals Limited, priority 2013, dated 2017).
